# From article PMC10706475 (International Journal of Molecular Sciences, 2023)
# pKi: −log10 of the molar value. Where “and” joins values, the source holds several entries; their conditions need not be identical. Identical values can stand only once. Like-named read-outs stand apart in the source and are kept apart here.
# What was measured:
# 5-HT2A = molecular target: T1, 5-HT2A (Homo sapiens, UniProt P28223); experiment: radioligand binding, 5-HT2A; settings: [3H] Ketanserin, cloned human receptor; read-out: 5HT2A binding affinity (Ki)
# T1 construct: expressed in transfected cells
# nitric oxide (NO) = format: in vivo, mice
# D2 = molecular target: T2, D2 (Homo sapiens, UniProt P14416); experiment: radioligand binding, D2; settings: [3H] N-Methylspiperone, cloned human receptor; read-out: D2 binding affinity (Ki)
# T2 construct: expressed in transfected cells
# GluN1/GluN2A = GluN1/GluN2A (Rattus norvegicus, UniProt P35439+Q00959); experiment: [3H] MK801 binding assay, transfected HEK293 cells, GluN1/GluN2A
# κ-opioid receptors (KOR) = molecular target: T3, κ-opioid receptors (KOR) (Rattus norvegicus, UniProt P34975); experiment: biochemical; format: binding; settings: read-out: κ-Opiod Receptor Ki
# T3 construct: expressed in transfected cells
# Vitamin C = format: in vivo, mice
# [1] = in vivo activity (i.p.), test not specified; settings: 100 and 300 mg/kg (i.p.); test not named
# Procedure: Sodium metavanadate (NaO3V) (Sigma, St. Louis, MO, USA) was utilized in this study. Novel NMDA-Receptor antagonist, ZA-II-05, is a bicyclic aryl cyclohexylamine, designed and synthesized in our lab, fully active at 100 and 300 mg/kg (i.p.). Several tests established the safety of the compound at dosages envisioned in this study.
# H2O2 = test system: H2O2; set-up: species or system mice; settings: mouse, in vivo
# [2] = test system: organotypic rat hippocampal slices; format: cell-based
# [3] = test system: dendritic density and arborizations; format: in vivo, mice; settings: coadministration of ZA-II-05 with […], vs […]-treated group
# [4] = molecular target: T4, Dopamine Transporter (DAT) (Homo sapiens, UniProt Q01959); experiment: radioligand binding, Dopamine Transporter; settings: [3H] WIN35428, cloned human transporter
# T4 construct: expressed in transfected cells
# [5] = locomotion and motor coordination; format: in vivo, mice; settings: treatment with ZA-II-05 in vanadium-induced neurotoxicity
# IBA1 = format: in vivo, mice; settings: ZA-II-05 treated groups vs […] group
# Sigma1 = molecular target: T5, Sigma1 (Rattus norvegicus, UniProt Q9R0C9); experiment: radioligand binding, Sigma1; settings: [3H] Pentazocine (+), rat brain; read-out: Sigma 1 binding affinity (Ki)
# T5 construct: Sigma1; Pentazocine (+); Rat; Brain; from tissue; host or cells: rat brain
# [6] = molecular target: T6, Serotonin Transporter (SERT) (Homo sapiens, UniProt P31645); experiment: radioligand binding, Serotonin Transporter; settings: [3H] Citalopram, cloned human transporter; read-out: SERT binding affinity (Ki)
# T6 construct: expressed in transfected cells
# [7] = molecular target: T7, Norepinephrine Transporter (NET) (Homo sapiens, UniProt P23975); experiment: radioligand binding, Norepinephrine Transporter; settings: [3H] Nisoxetine, cloned human transporter; read-out: NET binding affinity (Ki)
# T7 construct: expressed in transfected cells
# µ-opioid receptors (MOR) = molecular target: T8, µ-opioid receptors (MOR) (Homo sapiens, UniProt P35372); experiment: radioligand binding, µ-opioid receptor; settings: read-out: μ-Opiod Receptor Ki
# T8 construct: expressed in transfected cells
# [8] = test system: tumor necrosis factor-alpha (TNF-α)
# NeuN = format: in vivo, mice
# [9] = test system: Myelin Basic Protein (MBP); set-up: species or system mice; settings: mouse, in vivo
# GFAP = test system: GFAP; set-up: species or system mice; settings: mouse, in vivo
# total thiol (PT) = format: in vivo, mice
# Non-protein thiol (NPT) = format: in vivo, mice
# Sigma2 = molecular target: T9, Sigma2 (Rattus norvegicus, UniProt Q5U3Y7); experiment: radioligand binding, Sigma2
# T9 construct: Sigma2; DTG; Rat; PC12; endogenous in cells; host or cells: PC12
# Dopamine 1 (D1) = molecular target: T10, Dopamine 1 (D1) (Homo sapiens, UniProt P21728); experiment: radioligand binding, Dopamine 1 (D1); settings: [3H] SCH23390, cloned human receptor; read-out: D1 binding affinity (Ki)
# T10 construct: expressed in transfected cells
# [10] = ZA-II-05 only 100 mg/kg i.p. every 72 h, one month, mouse brain
# T10 sequence (P21728 whole entry): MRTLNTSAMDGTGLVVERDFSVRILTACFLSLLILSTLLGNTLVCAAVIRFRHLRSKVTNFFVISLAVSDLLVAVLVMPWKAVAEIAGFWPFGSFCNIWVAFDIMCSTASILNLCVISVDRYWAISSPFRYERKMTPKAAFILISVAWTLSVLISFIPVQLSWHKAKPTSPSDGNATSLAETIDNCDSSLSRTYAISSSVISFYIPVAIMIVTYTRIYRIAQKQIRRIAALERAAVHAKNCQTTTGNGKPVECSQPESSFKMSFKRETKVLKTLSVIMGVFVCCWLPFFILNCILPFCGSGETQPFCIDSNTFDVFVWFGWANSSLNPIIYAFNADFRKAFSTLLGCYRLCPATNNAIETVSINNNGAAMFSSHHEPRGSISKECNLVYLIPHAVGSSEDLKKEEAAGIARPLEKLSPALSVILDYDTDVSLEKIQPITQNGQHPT
# T5 sequence (Q9R0C9 whole entry): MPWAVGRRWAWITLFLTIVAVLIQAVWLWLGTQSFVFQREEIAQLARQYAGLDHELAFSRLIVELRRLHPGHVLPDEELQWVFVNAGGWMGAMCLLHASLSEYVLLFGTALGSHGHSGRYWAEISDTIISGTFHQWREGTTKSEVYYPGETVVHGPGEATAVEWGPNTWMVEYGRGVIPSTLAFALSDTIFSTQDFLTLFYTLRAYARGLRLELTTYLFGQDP
# T2 sequence (P14416 whole entry): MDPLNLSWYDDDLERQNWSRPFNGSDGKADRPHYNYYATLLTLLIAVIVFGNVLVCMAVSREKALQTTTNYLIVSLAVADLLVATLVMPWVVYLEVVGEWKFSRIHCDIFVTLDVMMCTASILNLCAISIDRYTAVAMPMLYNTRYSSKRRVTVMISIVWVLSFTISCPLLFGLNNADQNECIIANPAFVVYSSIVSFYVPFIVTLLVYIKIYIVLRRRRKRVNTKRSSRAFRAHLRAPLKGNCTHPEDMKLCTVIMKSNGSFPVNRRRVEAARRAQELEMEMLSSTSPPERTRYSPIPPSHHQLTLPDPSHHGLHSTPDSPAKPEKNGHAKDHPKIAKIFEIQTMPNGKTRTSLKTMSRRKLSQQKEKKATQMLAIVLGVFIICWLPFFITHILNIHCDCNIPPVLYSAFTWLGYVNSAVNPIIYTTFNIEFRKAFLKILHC
# Chain of GluN1/GluN2A (Q00959 23-1464, other chains not shown): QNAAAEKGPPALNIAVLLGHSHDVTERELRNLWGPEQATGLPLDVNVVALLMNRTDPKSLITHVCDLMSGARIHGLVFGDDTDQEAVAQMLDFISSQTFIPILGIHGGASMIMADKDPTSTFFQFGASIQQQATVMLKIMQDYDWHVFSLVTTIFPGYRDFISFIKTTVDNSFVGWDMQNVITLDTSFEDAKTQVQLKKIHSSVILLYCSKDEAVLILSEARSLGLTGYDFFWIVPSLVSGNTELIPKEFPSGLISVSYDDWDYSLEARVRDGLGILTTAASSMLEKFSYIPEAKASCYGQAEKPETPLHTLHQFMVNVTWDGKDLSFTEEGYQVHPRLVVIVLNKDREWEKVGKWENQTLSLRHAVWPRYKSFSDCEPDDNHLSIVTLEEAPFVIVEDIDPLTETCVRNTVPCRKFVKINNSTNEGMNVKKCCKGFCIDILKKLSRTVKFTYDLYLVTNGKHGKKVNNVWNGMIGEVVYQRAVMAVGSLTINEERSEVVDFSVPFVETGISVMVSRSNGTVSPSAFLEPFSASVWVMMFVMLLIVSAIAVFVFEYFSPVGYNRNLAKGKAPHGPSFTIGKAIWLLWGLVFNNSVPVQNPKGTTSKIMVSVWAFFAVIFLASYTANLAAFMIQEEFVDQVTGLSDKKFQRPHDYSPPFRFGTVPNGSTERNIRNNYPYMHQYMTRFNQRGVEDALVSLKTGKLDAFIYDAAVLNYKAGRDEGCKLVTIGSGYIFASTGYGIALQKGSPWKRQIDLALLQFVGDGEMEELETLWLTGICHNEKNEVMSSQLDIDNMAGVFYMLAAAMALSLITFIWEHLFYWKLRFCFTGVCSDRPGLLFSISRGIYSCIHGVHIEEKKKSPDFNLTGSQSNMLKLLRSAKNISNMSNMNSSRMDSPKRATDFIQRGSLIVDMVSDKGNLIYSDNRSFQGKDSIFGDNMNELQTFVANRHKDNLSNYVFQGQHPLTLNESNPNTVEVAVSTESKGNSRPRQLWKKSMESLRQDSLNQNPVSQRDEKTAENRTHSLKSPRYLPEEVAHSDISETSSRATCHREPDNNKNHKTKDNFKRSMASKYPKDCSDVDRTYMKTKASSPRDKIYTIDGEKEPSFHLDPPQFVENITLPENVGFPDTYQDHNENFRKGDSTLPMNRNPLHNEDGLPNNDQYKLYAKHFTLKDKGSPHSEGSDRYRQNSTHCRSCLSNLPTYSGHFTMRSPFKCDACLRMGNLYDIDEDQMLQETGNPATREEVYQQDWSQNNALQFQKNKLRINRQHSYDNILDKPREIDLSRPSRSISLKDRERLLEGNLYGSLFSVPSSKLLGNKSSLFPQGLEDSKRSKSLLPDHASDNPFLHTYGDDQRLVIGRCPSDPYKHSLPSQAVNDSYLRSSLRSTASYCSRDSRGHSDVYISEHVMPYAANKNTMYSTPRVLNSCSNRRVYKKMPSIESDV
# T9 sequence (Q5U3Y7 whole entry): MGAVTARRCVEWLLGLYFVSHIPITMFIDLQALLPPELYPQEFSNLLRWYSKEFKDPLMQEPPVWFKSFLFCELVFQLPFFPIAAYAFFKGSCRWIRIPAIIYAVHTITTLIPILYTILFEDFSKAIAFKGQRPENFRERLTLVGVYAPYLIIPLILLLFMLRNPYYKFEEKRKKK
# T1 sequence (P28223 whole entry): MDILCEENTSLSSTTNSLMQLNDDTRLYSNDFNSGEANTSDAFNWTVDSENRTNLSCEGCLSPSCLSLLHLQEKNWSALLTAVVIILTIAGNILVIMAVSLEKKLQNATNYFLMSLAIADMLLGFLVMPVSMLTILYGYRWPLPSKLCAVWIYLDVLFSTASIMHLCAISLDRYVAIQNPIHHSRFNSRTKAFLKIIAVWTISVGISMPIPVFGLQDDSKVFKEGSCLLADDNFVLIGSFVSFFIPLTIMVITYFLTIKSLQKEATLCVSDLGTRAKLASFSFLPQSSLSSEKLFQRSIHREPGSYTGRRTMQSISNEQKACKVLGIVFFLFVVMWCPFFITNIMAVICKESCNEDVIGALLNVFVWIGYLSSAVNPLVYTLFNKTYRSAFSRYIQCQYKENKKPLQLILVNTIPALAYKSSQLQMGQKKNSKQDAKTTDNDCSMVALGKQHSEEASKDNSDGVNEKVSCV
# T8 sequence (P35372 whole entry): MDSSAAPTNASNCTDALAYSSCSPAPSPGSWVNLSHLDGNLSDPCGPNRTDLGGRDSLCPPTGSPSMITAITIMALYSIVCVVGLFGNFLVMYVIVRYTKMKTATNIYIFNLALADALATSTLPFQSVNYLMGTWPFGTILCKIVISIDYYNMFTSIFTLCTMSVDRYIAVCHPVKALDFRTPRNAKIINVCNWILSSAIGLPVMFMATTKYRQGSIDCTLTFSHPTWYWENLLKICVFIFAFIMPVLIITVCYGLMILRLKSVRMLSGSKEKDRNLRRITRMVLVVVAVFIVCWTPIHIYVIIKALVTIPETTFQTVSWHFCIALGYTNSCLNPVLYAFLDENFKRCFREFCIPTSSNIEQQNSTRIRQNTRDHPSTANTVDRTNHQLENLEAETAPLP
# T3 sequence (P34975 whole entry): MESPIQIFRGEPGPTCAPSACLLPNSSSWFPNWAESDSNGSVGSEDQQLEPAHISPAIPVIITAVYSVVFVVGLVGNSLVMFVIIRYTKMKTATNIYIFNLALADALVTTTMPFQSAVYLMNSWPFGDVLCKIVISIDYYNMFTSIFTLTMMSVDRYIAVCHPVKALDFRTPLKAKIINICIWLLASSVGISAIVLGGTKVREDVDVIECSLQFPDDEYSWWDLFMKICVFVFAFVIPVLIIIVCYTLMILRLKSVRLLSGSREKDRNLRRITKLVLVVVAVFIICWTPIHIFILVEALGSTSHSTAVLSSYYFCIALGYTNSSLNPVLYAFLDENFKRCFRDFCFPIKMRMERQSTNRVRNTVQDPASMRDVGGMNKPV
# T4 sequence (Q01959 whole entry): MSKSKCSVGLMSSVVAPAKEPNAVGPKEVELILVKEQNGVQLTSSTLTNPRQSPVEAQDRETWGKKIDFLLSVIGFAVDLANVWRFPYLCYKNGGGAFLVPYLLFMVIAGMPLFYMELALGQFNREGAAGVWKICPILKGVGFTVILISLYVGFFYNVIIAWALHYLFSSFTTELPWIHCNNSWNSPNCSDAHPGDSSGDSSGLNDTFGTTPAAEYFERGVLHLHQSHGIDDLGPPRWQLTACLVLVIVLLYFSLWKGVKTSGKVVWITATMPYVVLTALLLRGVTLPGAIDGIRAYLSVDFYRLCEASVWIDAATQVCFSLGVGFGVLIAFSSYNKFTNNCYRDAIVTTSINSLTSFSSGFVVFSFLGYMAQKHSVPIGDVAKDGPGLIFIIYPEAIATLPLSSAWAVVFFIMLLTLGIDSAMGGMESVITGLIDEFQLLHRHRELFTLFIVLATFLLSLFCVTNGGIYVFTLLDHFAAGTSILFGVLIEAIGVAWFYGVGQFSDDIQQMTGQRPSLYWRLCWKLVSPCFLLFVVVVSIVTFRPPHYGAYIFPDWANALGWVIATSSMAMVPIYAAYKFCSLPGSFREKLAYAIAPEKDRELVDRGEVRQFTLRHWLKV
compound,measurement,setting,value
Fc1ccc(C2(NCCCOC3CCCCO3)CC3CCC2C3)cc1 (stereo not shown) [ZA-II-05],pKi,5-HT2A,< 5.00
same,NO,nitric oxide (NO); [10],0.34±0.03 μmole/mg protein
same,NO,"nitric oxide (NO); mouse, in vivo",0.32±0.03 μmole/mg protein
same,pKi,D2,< 5.00
same,difference in affinity GluN1/GluN2A vs GluN1/GluN2B,GluN1/GluN2A,No significant difference in affinity
same,pKi,κ-opioid receptors (KOR),5.91
same,VIT. C,Vitamin C; [10],0.17±0.02 nmoles/mg protein
same,VIT. C,"Vitamin C; mouse, in vivo",0.20±0.04 nmoles/mg protein
same,activity in vivo,[1],fully active
same,H2O2,H2O2,38.89±2.67 and 46.02±0.29
same,cell death in vanadium-treated hippocampal slices (propidium iodide uptake),[2],gradual reduction in cell death with increasing concentrations
same,concentration of peak protection against vanadium-induced cell death,[2],100 µM
same,dendritic length and arborization (Golgi stain),[3],successfully reversed these dendritic changes induced by vanadium neurotoxicity
same,pKi,[4],5.50
same,locomotion and motor coordination,[5],enhanced locomotion and improved motor coordination
same,microglial activation (IBA1),IBA1,quiescence and recovery from activation
same,pKi,Sigma1,< 5.00
same,pKi,[6],< 5.00
same,pKi,[7],< 5.00
same,pKi,µ-opioid receptors (MOR),5.52
same,TNF-α expression,"[8]; ZA-II-05 only 100 mg/kg, all brain regions vs other groups",upregulated the expression of TNF-α significantly (p < 0.05) in all the brain regions
same,cytoplasmic TNF-α expression,[8]; […] + ZA-II-05-treated groups vs […] group,reduced cytoplasmic TNF-α expression compared to vanadium group
same,NeuN viable cells / neuronal number,"NeuN; ZA-II-05 only 100 mg/kg (ZA treatment only), CA1 and PFC",decreased viable cells in CA1 but increased neuronal number and vitality in the prefrontal cortex
same,"NeuN cellular pathology, prefrontal cortex","NeuN; mouse, in vivo, 100 mg/kg",significantly less cellular pathology in the prefrontal cortex compared to the vanadium-exposed groups
same,"NeuN, loss of apical dendrites of pyramidal cells, CA1","NeuN; mouse, in vivo, 100 mg/kg",reversal effect relative to the vanadium-exposed group
same,"NeuN, neuronal degeneration of pyramidal cells, CA3","NeuN; mouse, in vivo, 100 mg/kg",reversal effect with reduced cellular toxicity
same,expression of myelin content (MBP),[9],significantly higher expression of myelin content and preservation of axonal dendritic integrity in the deep cortical layers
same,astrocyte reactivity (GFAP),GFAP,attenuation of astrocyte reactivity
same,THIOL,total thiol (PT); [10],28.62±6.72 nmoles/mg/protein
same,THIOL,"total thiol (PT); mouse, in vivo",25.06±4.68 nmoles/mg/protein
same,NPT,Non-protein thiol (NPT); [10],26.98±5.89 nmoles/mg protein
same,NPT,"Non-protein thiol (NPT); mouse, in vivo",29.06±3.80 nmoles/mg protein
same,pKi,Sigma2,8.26
same,pKi,Dopamine 1 (D1),< 5.00
